Test results as given in US20090105278A1, “Selective inhibitors of human corticosteroid syntheses” (Universitat Des Saarlandes, priority 2004, published 2009).
Structures can show the parent of a compound that is named as a salt.

system: not given; assay: not given; settings: not given

Row | Compound | melting point [°C]
1 | C(=C1\CCc2ccccc21)/c1cnc[nH]1 (as salt: oxalate) [Compound 42b, 5-[(Z)-2,3-Dihydro-1H-ind-1-ylidenemethyl]-1H-imidazolium oxalate] | 196
2 | Clc1ccc2c(c1)CC/C2=C\c1cccnc1 (as salt: hydrochloride) [Compound 7a, 3-[(E)-(5-Chloro-2.3-dihydro-1H-indane-1-ylidene)methyl]pyridine Hydrochloride] | 234
3 | Clc1ccc2c(c1)CC/C2=C\c1ccncc1 (as salt: hydrochloride) [Compound 8a, 4-[(E)-(5-Chloro-2,3-dihydro-1H-indane-1-ylidene)methyl]pyridine Hydrochloride] | 213
4 | C(=C1/CCc2ccccc21)/c1cnc[nH]1 (as salt: hydrochloride) [Compound 42a, 5-[(E)-2,3-Dihydro-1H-indane-1-ylidenemethyl]-1H-imidazole] | 148 to 151
5 | COc1ccc2c(c1)CC/C2=C/c1cccnc1 (as salt: hydrochloride) [Compound 11b, 3-[(Z)-(5-Methoxy-2,3-dihydro-1H-indane-1-ylidene)methyl]pyridine Hydrochloride] | 220
6 | c1cncc(-c2ccc3cccc4c3c2CC4)c1 (as salt: salt) [Compound 50, 3-(1,2-Dihydroacenaphthylene-3-yl)pyridine] | 208

target: T1, bovine adrenal CYP11B (Bos taurus, UniProt P15150); assay: Percent inhibition of bovine CYP11B (adrenal mitochondria); settings: read-out: % Inhibition bovine bCYP11B, bovine adrenal mitochondria, 1 mg/ml protein; corticosterone substrate 200 μM; inhibitor 1 μM
T1 sequence (P15150 25-503): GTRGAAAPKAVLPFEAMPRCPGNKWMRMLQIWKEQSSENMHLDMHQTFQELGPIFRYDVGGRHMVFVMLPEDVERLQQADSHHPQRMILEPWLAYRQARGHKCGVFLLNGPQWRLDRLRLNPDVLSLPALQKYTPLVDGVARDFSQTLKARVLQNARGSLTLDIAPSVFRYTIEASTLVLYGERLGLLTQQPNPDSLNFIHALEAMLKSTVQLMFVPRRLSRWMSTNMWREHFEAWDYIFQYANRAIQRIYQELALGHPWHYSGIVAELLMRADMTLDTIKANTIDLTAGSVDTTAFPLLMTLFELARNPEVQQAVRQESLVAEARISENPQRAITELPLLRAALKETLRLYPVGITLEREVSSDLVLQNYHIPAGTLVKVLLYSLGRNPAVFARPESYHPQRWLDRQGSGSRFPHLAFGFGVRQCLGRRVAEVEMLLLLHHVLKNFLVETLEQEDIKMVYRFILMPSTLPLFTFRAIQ
Method: Bovine adrenal glands obtained freshly after slaughtering were stored in ice cold Tris-sucrose buffer (0.25 M sucrose, 0.05 M Tris; pH 7.4) until processed. After removing the appending adipose tissue, the adrenal medulla was carefully separated from the adrenal cortex using scissors. The pieces of adrenal cortex were coarsely comminuted with scissors, washed with Tris-sucrose buffer, weighed and finely comminuted in the above buffer (2 ml per g of tissue) with a hand mixer. Thereafter, the tissue was homogenized with an Ultra-Turrax mixer. For separating coarse cell debris and the nuclei, the homogenizate was centrifuged twice for 15 min at 900 g and 4° C. The supernatant was subsequently centrifuged for 35 min at 11,000 g for recovering the mitochondrial fraction. For purifying the mitochondrial fraction, the precipitate was resuspended in Tri-sucrose buffer and again centrifuged at 11,000 g for 35 min. This washing step was performed two times in total. After the last centrifugation, the pellet was resuspended in Tris-sucrose buffer containing 0.001 M EDTA and frozen at −70° C.
The substrate corticosterone was dissolved in methanol and diluted with Tris buffer to a final concentration of 200 μM. The inhibitors were also dissolved in methanol and diluted with buffer to a final concentration of 1 μM. […] Corticosterone (200 μM) was incubated with inhibitor (1 μM) and mitochondrial enzyme (0.5 mg/0.5 ml) with the addition of a regenerating system consisting of NADP^+ (1 mM), glucose-6-phosphate (7 mM) and glucose-6-Phosphate dehydrogenase (1 IU/0.5 ml). Up to 5 inhibitors per test could be incubated in duplicate. […] After preincubation for 5 minutes (30° C.; water bath), the reaction was started by adding mitochondrial suspension. […] The blind values were admixed with 250 μl of HCl before the enzyme was pipetted in. The steroids were separated off by shaking with 1 ml of ethyl acetate (10 min). After centrifugation (15,000 g, 10 min), 900 μl of the organic phase was shaken with 250 μl 1 N NaOH (10 min), and 800 μl of supernatant was again washed with 250 μl of buffer. […] 18-OH-corticosterone (retention time: 10 min) and corticosterone (retention time: 21 min) were separated. The height of the 18-OH-corticosterone peak was used for evaluation. The percent inhibition of the 18-hydroxylation of corticosterone by the inhibitors was based on the mediums of the control incubation, taking the blind values into account.

Row | Compound | inhibition at 1 µM [%]
7 | CC(=O)N1CCN(c2ccc(OCC3COC(Cn4ccnc4)(c4ccc(Cl)cc4Cl)O3)cc2)CC1 (stereo not shown) [Ketoconazole, reference compound] | 78
